# Patent publication EP0113508A1, “Hydrophobic platinum compounds and their preparation” (Inco Research & Development Center, Inc., priority 1982, dated 1984)
# How the values were obtained:
# [1] = Toxicity (LD10) of the cis Pt (II) analogues in PC vesicles; assay type: in vivo, mice; details: passed through G-50 column, preliminary
# L1210 leukemic cells = test: Chemotherapy of mice injected intravenously with L1210 leukemic cells; increase in life span (ILS) versus controls; assay type: in vivo; details: preliminary
# Description: To deliver the water insoluble cis Pt (II) analogues for chemotheraphy, they were encapsulated in sonicated phosphatidylcholine (PC) vesicles. To prepare these PC vesicles, both the cis Pt (II) analogue and PC had to be lyophilized from cyclohexane or benzene to give a dry powder for hydration by an aqueous medium. Simply drying down an organic solution of both the cis Pt (II) analogue and the PC gave unsatisfactory results upon hydration. The lyophilized samples were hydrated with physiological saline and then sonicated at 4°C using a W-375 Branson sonicator, under a nitrogen atmosphere. The sonicated samples were spun at 12,000 x G for 5 minutes to remove any titanium fragments from the sonicator probe and any undispersed lipid. […] Therefore all preparations were passed down a G-50 gel permeation column to separate any free cis Pt (II) from the hydrophobic cis Pt (II) analogue encapsulated in egg PC vesicles had better structural integrity and more uniform size distribution than the same analogues in soy PC vesicles. […] That is, the vesicles containing the cis Pt (II) analogues that had the lowest amounts of free phosphatidic acid, had the best structural stability and smaller size ranges. This is in direct contrast to the effect of phosphatidic acid in PC vesicles in the absence of the cis Pt (II) analogues.
# The fractions from the G-50 column containing the encapsulated cis Pt (II) analogues were concentrated by ultrafiltration to the desired concentration for chemotheraphy studies.
# Various compounds synthesized and incorporated in liposomal vesicles in the foregoing manner were employed in the chemotherapy of mice. The testing consisted of injections of 10 5 L1210 leukemic cells intravenuously into mice. One day later, a single -intravenous dose of the cis Pt (II) analogue in a sonicated PC vesicle was given. Increase in life span (ILS) was then measured relative to control animals who received only saline or PC vesicles alone as intravenous injections. Data are shown in Table I, together with data on some tests in which samples were not passed through a gel permeation column to remove free cis Pt (II), but an injectable preparation was made by the addition of "Tween" 80.
# [2] = Egg PC vesicle, passed through G-50 column, single intravenous dose one day after L1210 cells i.v.
# [3] = Egg PC vesicle, passed through G-50 column, single intravenous dose
# [4] = Soy PC vesicle, passed through G-50 column, single intravenous dose one day after L1210 cells i.v.
# [5] = Soy PC vesicle, passed through G-50 column, single intravenous dose
Substance,LD10 ([1]; Egg PC vesicle),% ILS at Optimal Dose (L1210 leukemic cells; [2]),Optimal Dose (L1210 leukemic cells; [3]),"% ILS at Optimal Dose (L1210 leukemic cells; Soy PC vesicle, samples not treated by G-50 column and Tween-80 added, single intravenous dose)",LD10 ([1]; Soy PC vesicle),% ILS at Optimal Dose (L1210 leukemic cells; [4]),Optimal Dose (L1210 leukemic cells; [5])
"Dioleyl Phosphaditic Acid 1,2 Diaminocyclohexane Cis Pt (II) [Dioleyl phosphatidic acid DAC]",58 mg Pt/kg,83%,39 mg Pt/kg,0%,,,
"Dipalmitoyl Phosphatidic Acid 1,2 Diaminocyclohexane Cis Pt (II) [Dipalmitoyl phosphatidic acid DAC]",58 mg Pt/kg,100%,39 mg Pt/kg,,,,
"Egg Phosphaditic Acid 1,2 Diaminocyclohexane Cis Pt (II) [Egg phosphatidic acid DAC]",>58 mg Pt/kg,50%,26 mg Pt/kg,,,,
Soy Phosphaditic Acid Bis Cyclohexylamine Cis Pt (II),,,,,500 mg Pt/kg,16%,155 mg Pt/kg
Soy Phosphatidic Acid Bis Cyclopentylamine Cis Pt (II),,,,,125 mg Pt/kg,16%,125 mg Pt/kg
Soy Phosphatidic Acid Bis Isoamylamine Cis Pt (II),,,,,345 mg Pt/kg,8%,155 mg Pt/kg
